Test results reported in US20160222014A1, “COMPOUNDS FOR REGULATING FAK AND/OR SRC PATHWAYS” (ASANA BIOSCIENCES, LLC, priority 2013, published 2016).
pIC50: −log10 of the molar value.

How the values were obtained:
Recombinant Src enzyme = target: T1, Recombinant Src enzyme (Homo sapiens, UniProt P12931); assay: Src HTRF assay; assay type: biochemical
T1 construct: purchased Millipore 14-326; host or cells: Sf21 insect cells
Summary of the method: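 Sf21-expressed recombinant Src at 5 nM final with biotinylated N-terminally tagged Tyk2 peptide substrate at 0.5 μM final; a component freshly made in enzyme assay buffer pH7.4 was used at 10 μM final. Buffer, supplements, compound handling and procedure as in the FAK HTRF assay; dasatinib included.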

JAK2 = JAK2 (Homo sapiens, UniProt O60674); assay: JAK2 biochemical potency; details: read-out: JAK2 HTRF IC50
[1] = target: T2, FAK phosphorylated at Y397 in HEK-FAK cell line overexpressing human FL FAK protein (Homo sapiens, UniProt Q05397); assay: Cell based assay, Phospho-FAK ELISA; details: HEK stb; read-out: pFAK EC50 (μM) HEK stb
T2 construct: expressed in transfected cells
Summary of the method: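 Stable HEK293 line overexpressing full-length human FAK, kept under 0.8 mg/mL Zeocin. In lysates, FAK Y397 autophosphorylation was measured by sandwich ELISA: total-FAK capture antibody, biotinylated pY397-specific detection antibody, streptavidin-HRP with TMB substrate.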

AURKB (Aurora B) enzyme = target: T3, AURKB (Aurora B) enzyme (Homo sapiens, UniProt Q96GD4); assay: Aurora B HTRF assay; assay type: biochemical; details: read-out: AuroraB IC50
T3 construct: purchased Invitrogen PVR 130
Summary of the method: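 HTRF kinase assay with 5 nM Aurora B and 50 nM ULight-PLK (Ser137) peptide, with a reagent at 30 μM final; 1 h at rt. Reaction stopped with EDTA, and phospho-peptide detected with 2 nM Eu-anti-P-PLK(Ser137) antibody after 1 h at rt, read as HTRF.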

Chain of JAK2 (O60674 whole entry, species assumed): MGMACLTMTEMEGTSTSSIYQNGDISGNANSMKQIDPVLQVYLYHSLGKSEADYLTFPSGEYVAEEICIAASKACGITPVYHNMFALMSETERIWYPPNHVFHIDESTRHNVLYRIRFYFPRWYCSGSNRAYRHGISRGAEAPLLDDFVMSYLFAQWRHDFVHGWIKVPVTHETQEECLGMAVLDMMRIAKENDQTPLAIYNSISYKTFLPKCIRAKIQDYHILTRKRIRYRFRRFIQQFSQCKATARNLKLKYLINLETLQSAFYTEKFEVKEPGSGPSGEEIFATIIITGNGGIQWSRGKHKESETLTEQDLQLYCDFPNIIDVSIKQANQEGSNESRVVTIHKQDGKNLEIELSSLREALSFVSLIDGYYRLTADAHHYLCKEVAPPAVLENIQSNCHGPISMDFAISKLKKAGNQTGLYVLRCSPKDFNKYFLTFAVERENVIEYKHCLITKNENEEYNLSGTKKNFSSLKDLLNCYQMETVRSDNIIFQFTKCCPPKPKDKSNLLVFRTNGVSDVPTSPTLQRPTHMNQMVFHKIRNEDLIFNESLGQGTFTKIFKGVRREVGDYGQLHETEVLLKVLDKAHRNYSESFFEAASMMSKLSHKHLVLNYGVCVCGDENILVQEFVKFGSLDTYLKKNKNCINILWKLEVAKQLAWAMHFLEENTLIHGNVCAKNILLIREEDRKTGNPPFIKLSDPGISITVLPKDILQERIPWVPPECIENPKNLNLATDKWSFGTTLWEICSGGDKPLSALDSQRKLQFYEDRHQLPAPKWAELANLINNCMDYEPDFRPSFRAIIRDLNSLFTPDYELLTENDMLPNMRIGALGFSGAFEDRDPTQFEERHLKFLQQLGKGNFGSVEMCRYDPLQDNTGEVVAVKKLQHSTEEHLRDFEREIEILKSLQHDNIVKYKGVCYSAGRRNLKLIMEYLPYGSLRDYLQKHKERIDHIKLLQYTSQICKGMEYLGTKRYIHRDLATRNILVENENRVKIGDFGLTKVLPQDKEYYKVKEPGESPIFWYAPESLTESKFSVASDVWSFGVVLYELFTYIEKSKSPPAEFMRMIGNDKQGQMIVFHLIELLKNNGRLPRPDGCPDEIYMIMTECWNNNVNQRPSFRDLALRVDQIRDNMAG
T2 sequence (Q05397 whole entry): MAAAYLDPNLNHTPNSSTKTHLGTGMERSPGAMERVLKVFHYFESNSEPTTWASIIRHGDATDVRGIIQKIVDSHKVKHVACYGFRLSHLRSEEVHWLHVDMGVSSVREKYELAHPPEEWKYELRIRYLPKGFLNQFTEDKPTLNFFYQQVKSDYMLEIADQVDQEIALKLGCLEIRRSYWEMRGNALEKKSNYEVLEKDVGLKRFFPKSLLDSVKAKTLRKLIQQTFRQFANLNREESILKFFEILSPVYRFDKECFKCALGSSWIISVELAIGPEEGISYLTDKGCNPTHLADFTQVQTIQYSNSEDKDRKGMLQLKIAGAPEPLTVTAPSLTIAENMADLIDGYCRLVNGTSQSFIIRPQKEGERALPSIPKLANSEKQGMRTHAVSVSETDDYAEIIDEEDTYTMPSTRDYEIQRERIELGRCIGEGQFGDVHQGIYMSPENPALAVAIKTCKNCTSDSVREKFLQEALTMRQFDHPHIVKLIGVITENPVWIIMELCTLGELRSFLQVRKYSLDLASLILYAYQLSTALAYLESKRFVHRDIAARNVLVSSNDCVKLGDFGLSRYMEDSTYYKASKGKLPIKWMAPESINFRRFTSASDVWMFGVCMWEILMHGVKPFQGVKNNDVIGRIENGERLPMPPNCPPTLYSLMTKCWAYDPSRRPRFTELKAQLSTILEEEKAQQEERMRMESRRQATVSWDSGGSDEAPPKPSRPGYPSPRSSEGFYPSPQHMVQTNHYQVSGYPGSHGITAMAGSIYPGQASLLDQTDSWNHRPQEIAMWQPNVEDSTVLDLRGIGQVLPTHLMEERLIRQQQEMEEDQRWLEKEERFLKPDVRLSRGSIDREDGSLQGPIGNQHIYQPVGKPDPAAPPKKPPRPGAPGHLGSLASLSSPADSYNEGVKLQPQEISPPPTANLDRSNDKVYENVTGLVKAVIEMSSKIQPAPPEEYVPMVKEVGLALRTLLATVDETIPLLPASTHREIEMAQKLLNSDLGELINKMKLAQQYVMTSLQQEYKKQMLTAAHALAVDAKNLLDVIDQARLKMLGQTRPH
T3 sequence (Q96GD4 whole entry): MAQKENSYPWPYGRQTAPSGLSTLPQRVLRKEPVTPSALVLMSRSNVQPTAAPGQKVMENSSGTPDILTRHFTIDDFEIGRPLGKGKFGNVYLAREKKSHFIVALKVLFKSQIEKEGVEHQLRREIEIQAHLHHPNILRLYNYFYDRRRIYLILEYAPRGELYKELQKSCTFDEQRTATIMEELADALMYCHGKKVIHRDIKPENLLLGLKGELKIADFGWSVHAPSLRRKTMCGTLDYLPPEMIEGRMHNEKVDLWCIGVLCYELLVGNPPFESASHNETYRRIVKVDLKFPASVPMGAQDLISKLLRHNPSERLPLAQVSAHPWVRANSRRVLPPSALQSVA
T1 sequence (P12931 whole entry): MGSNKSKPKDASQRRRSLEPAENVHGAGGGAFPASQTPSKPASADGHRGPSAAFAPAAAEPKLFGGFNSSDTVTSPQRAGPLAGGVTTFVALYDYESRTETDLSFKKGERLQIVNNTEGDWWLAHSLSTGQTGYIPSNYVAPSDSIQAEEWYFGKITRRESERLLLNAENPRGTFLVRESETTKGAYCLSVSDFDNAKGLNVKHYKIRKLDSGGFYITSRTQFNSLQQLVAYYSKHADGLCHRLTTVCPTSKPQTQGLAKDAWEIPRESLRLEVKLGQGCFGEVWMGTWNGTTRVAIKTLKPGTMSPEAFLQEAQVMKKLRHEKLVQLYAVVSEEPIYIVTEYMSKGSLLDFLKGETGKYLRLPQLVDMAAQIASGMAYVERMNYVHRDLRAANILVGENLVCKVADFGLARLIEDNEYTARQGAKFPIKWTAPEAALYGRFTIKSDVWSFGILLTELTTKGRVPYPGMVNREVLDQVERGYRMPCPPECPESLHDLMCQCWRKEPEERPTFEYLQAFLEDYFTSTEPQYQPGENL

Row | Compound | pIC50 (Recombinant Src enzyme) | pIC50 (JAK2) | EC50 [1] [µM] | pIC50 (AURKB (Aurora B) enzyme)
1 | O=C1CCc2cc(Nc3ncc4cnn(Cc5ccccc5OC(F)F)c4n3)ccc2N1 [Example 21] | > 7.70 | > 7.70 | > 1 | 
2 | FC(F)Oc1ccccc1Cn1ccc2cnc(Nc3ccc4ncsc4c3)nc21 [Example 36] |  | > 7.70 | > 1 | < 6.00
3 | CC(=O)Nc1cccc(Nc2cc3c(cn2)cnn3Cc2ccccc2OC(F)F)c1 [Example 64] |  |  | > 1 | < 6.00
4 | FC(F)Oc1ccccc1Cn1ncc2cnc(Nc3ccc4ncsc4c3)cc21 [Example 82] |  |  | > 1 | < 6.00
5 | CN(c1ncccc1Cn1ncc2cnc(Nc3ccc4[nH]c(=O)[nH]c4c3)cc21)S(C)(=O)=O [Example 142] | < 6.00 |  | > 1 | 
6 | O=C1CCc2cc(Nc3ncc4ccn(S(=O)(=O)c5cccc6cccnc56)c4n3)ccc2N1 [Example 169] | > 7.70 |  |  | > 7.70
7 | CN(c1ncccc1Cn1ccc2cnc(Nc3ccc(NCCO)cc3)nc21)S(C)(=O)=O [Example 201] |  | > 7.70 | > 1 | > 7.70
8 | CN(c1ncccc1Cn1ncc2cnc(Nc3ccc4c(c3)CCC(=O)N4)nc21)S(C)(=O)=O [Example 202] | > 7.70 | > 7.70 | > 1 | 
9 | O=C1CCc2cc(Nc3ncc4ccn(Cc5cccnc5N5CCCS5(=O)=O)c4n3)ccc2N1 [Example 216] | > 7.70 |  | > 1 | > 7.70
10 | O=S(=O)(c1cccc2nsnc12)n1ccc2cnc(Nc3ccc(N4CCNCC4)cc3)nc21 [Example 253] |  | > 7.70 | > 1 | > 7.70
11 | Cn1cc(Nc2ncc3ccn(S(=O)(=O)c4cccc5cccnc45)c3n2)cn1 [Example 318] |  |  | > 1 | > 7.70
12 | COc1cc(N2CCNCC2)ccc1Nc1cc2c(ccn2S(=O)(=O)c2cccc3cccnc23)cn1 [Example 330, N-(2-Methoxy-4-(piperazin-1-yl)phenyl)-1-(quinolin-8-ylsulfonyl)-1H-pyrrolo[3,2-c]pyridin-6-amine] | < 6.00 | < 6.00 | < 0.02 | > 7.70
13 | Cc1cc(Nc2ncc3cnn(S(=O)(=O)c4cccc5cccnc45)c3n2)ccc1N1CCNCC1 [Example 332] | > 7.70 |  | < 0.02 | > 7.70
14 | COc1ccccc1S(=O)(=O)n1ncc2cnc(Nc3ccc(N4CCNCC4)cc3)nc21 [Example 335] |  |  | > 1 | > 7.70
15 | CN(c1ncccc1Cn1ccc2cnc(Nc3ccc(N4CCCC4CO)cc3)nc21)S(C)(=O)=O (centres unmarked) [Example 536] |  |  | > 1 | 
